# Experimental data taken from patent publication US10441627B2, “Method of treating prader-willi syndrome” (Ferring B.V., priority 2014, dated 2019).
# Experiments:
# [1] = system: human oxytocin (hOT) receptor vs human V2 (hV2) receptor; conditions: ratio of EC50 values; from Table 2 in WO2009/122285; cited from earlier work
# [2] = system: subjects with Prader-Willi Syndrome (PWS); assay: Double-blind, placebo-controlled clinical trial of carbetocin intranasal spray in subjects with PWS; format: in vivo, human; conditions: for Clinical Global Impression, Least-Squares Mean Change Carbetocin vs. Placebo: CGI-I 7-point clinician rating; for HPWSQ-R-C Behavior domain score, Least-Squares Mean Change Carbetocin vs. Placebo / HPWSQ-R-C Drive domain score, Least-Squares Mean Change Carbetocin vs. Placebo / HPWSQ-R-C Severity domain score, Least-Squares Mean Change Carbetocin vs. Placebo / HPWSQ-R-C total score, Least-Squares Mean Change Carbetocin vs. Placebo: clinician rated; for HPWSQ-R total score, Least-Squares Mean Change Carbetocin vs. Placebo / HPWSQ-R Behavior domain score, Least-Squares Mean Change Carbetocin vs. Placebo / HPWSQ-R Drive domain score, Least-Squares Mean Change Carbetocin vs. Placebo / HPWSQ-R Severity domain score, Least-Squares Mean Change Carbetocin vs. Placebo: parent/caregiver rated; for HPWSQ-R total score, Least-Squares Mean Change Carbetocin vs. Placebo: negative = improvement vs placebo
# Method: A prospective, double-blind, placebo-controlled, parallel trial in subjects with PWS between 10 and 18 years of age with genetically confirmed diagnosis of PWS and a documented nutritional Phase 3 based on the criteria described in Miller et al, 2011 (Am J Med Genet A, 155A(5):1040-1049) was performed. The trial included a Screening Period, a 14-day Treatment Period, and a Follow-Up Period. Subjects, along with their parent/caregiver, were required to visit the investigational site 4 times over the course of the trial and participate in 2 phone call assessments. The trial schedule is listed below. • Visit 1: Screening Period (Day −7 to Day 0) • Visit 2: Baseline 1st day dosing on site (Day 1) • Visit 3: 2nd day dosing on site (Day 2) • Phone call assessment (Day 8±1) • Visit 4: End-of-Treatment Visit (Day 15) • Follow-up phone call (Day 19±3)
# Following appropriate informed consent procedures, subjects underwent screening evaluations to determine eligibility before randomization. After randomization, efficacy measures and other assessments, including physical examination, vital signs, and collection of blood samples for clinical laboratory and pharmacokinetic evaluation, were performed at selected visits. Subjects were closely monitored for adverse events throughout the trial.
# Prior to first dosing at the investigational site, parents/caregivers were trained on the proper use of the nasal spray device and procedures for investigational medicinal product (IMP) home delivery. Parents/caregivers were instructed to administer 3 intranasal spray pumps of blinded IMP per nostril 3 times daily before meals within the following intervals:
# 38 subjects, 10-18 years of age, with genetically confirmed diagnosis of PWS and documented nutritional phase 3 PWS criteria (based on Miller et al, 2011), were randomized. 36 subjects completed the study.
# The carbetocin intranasal spray was prepared by dissolving […] in 0.9% sterile sodium chloride solution. Specifically, the preweighed carbetocin powder was reconstituted with the sodium chloride solution and subsequently transferred to a nasal spray device. Each spray pump actuation delivered a 50 μL volume of solution containing 1.6 mg carbetocin. Each dose consisted of 3 spray pump actuations in each nostril to deliver a total of 9.6 mg carbetocin. The daily dose of carbetocin was 28.8 mg.
# The primary endpoint measured in this trial was change in the total score from Visit 2 to Visit 4 in Hyperphagia in Prader-Willi Syndrome Questionnaire-Responsiveness (HPWSQ-R), which was completed by the parent/caregiver.
# 1. Clinical Global Impression-Improvement (CGI-I) after treatment at Visit 4.
# 2. Change from Visit 2 to Visit 4 for the following measurements: • HPWSQ-R hyperphagia behavior, drive, and severity domain scores. • Hyperphagia in Prader-Willi Syndrome Questionnaire-Responsiveness—completed by the clinician (HPWSQ-R-C) total score. • HPWSQ-R-C hyperphagia behavior, drive, and severity domain scores.
# 3. Change from Visit 1 to Visit 4 for the following measurements: • Children's Yale-Brown Obsessive Compulsive Scale (CY-BOCS) score. • Food Domain of the Reiss Profile.
# The primary endpoint was analyzed using an analysis of covariance model with treatment and site as fixed effects and HPWSQ-R total score at Visit 2 (baseline) as a covariate. The last observation carried forward method was used to carry forward non-missing values of HPWSQ-R total score during the phone call assessment (Day 8±1) to impute missing values of HPWSQ-R total score at Visit 4. The treatment group difference in total score between placebo and carbetocin was calculated by subtracting the mean change from baseline in placebo from that in the carbetocin group. A borderline statistically significant difference at the 10% significant level was achieved if the upper limit of the 90% 1-sided confidence interval for the treatment difference was less than zero. […]
compound,measurement,setting,value
CC[C@H](C)[C@@H]1NC(=O)[C@H](Cc2ccc(O)cc2)NC(=O)[C@@H](N)CSSC[C@@H](C(=O)N2CCC[C@H]2C(=O)N[C@@H](CC(C)C)C(=O)NCC(N)=O)NC(=O)[C@H](CC(N)=O)NC(=O)[C@H](CCC(N)=O)NC1=O [Oxytocin],hV2/hOT selectivity ratio (EC50 hV2/EC50 hOT),[1],3
carbetocin,"Clinical Global Impression, Least-Squares Mean Change Carbetocin vs. Placebo","[2]; Day 8, intranasal 28.8 mg/day",−0.9/0.0162
same,"HPWSQ-R-C Behavior domain score, Least-Squares Mean Change Carbetocin vs. Placebo","[2]; Day 8, intranasal 28.8 mg/day",−5.4/0.0017
same,"HPWSQ-R-C Drive domain score, Least-Squares Mean Change Carbetocin vs. Placebo","[2]; Day 8, intranasal 28.8 mg/day",−3.4/0.0019
same,"HPWSQ-R-C Severity domain score, Least-Squares Mean Change Carbetocin vs. Placebo","[2]; Day 8, intranasal 28.8 mg/day",−1.7/0.0061
same,"HPWSQ-R-C total score, Least-Squares Mean Change Carbetocin vs. Placebo","[2]; Day 8, intranasal 28.8 mg/day",−10.2/0.0017
same,"CY-BOCS, Least-Squares Mean Change Carbetocin vs. Placebo","[2]; Day 8, intranasal 28.8 mg/day",−2.7/0.0956
same,"Food Domain Score of Reiss Profile, Least-Squares Mean Change Carbetocin vs. Placebo","[2]; Day 8, intranasal 28.8 mg/day",−3.0/0.0184
same,"HPWSQ-R total score, Least-Squares Mean Change Carbetocin vs. Placebo","[2]; Day 8, intranasal 9.6 mg three times daily (28.8 mg/day)",−5.2/0.0632
same,"HPWSQ-R Behavior domain score, Least-Squares Mean Change Carbetocin vs. Placebo","[2]; Day 8, intranasal 28.8 mg/day",−1.9/0.1153
same,"HPWSQ-R Drive domain score, Least-Squares Mean Change Carbetocin vs. Placebo","[2]; Day 8, intranasal 28.8 mg/day",−2.1/0.0625
same,"HPWSQ-R Severity domain score, Least-Squares Mean Change Carbetocin vs. Placebo","[2]; Day 8, intranasal 28.8 mg/day",−1.1/0.0572
same,"Clinical Global Impression, Least-Squares Mean Change Carbetocin vs. Placebo","[2]; Day 15, intranasal 28.8 mg/day",−0.8/0.0233
same,"HPWSQ-R-C Behavior domain score, Least-Squares Mean Change Carbetocin vs. Placebo","[2]; Day 15, intranasal 28.8 mg/day",−4.3/0.0068
same,"HPWSQ-R-C Drive domain score, Least-Squares Mean Change Carbetocin vs. Placebo","[2]; Day 15, intranasal 28.8 mg/day",−2.6/0.0340
same,"HPWSQ-R-C Severity domain score, Least-Squares Mean Change Carbetocin vs. Placebo","[2]; Day 15, intranasal 28.8 mg/day",−2.2/0.0014
same,"HPWSQ-R-C total score, Least-Squares Mean Change Carbetocin vs. Placebo","[2]; Day 15, intranasal 28.8 mg/day",−10.5/0.0014
same,"CY-BOCS, Least-Squares Mean Change Carbetocin vs. Placebo","[2]; Day 15, intranasal 28.8 mg/day",−6.2/0.0047
same,"Food Domain Score of Reiss Profile, Least-Squares Mean Change Carbetocin vs. Placebo","[2]; Day 15, intranasal 28.8 mg/day",−4.4/0.0132
same,"HPWSQ-R Behavior domain score, Least-Squares Mean Change Carbetocin vs. Placebo","[2]; Day 15, intranasal 28.8 mg/day",−2.0/0.1172
same,"HPWSQ-R Drive domain score, Least-Squares Mean Change Carbetocin vs. Placebo","[2]; Day 15, intranasal 28.8 mg/day",−1.6/0.1436
same,"HPWSQ-R Severity domain score, Least-Squares Mean Change Carbetocin vs. Placebo","[2]; Day 15, intranasal 28.8 mg/day",−1.5/0.0248
same,"HPWSQ-R total score, Least-Squares Mean Change Carbetocin vs. Placebo","[2]; Day 15, intranasal 28.8 mg/day",−6.7/0.0290
same,"Improvement over placebo treated patients in HPWSQ-R, HPWSQ-R-C, CGI, CY-BOCS and Food Domain Score of Reiss Profile","[2]; Day 15 results, P<0.05",statistically significant improvement
same,hV2/hOT selectivity ratio (EC50 hV2/EC50 hOT),[1],244
